For test [1], the target named is T1, ERβ (Homo sapiens, UniProt Q92731). The following applies: in the presence of ERβ.
Test [2] has as its target T1, ERβ. Briefly: Repression of TNF-α activation of TNF-RE tkLuc in U2OS cells with ERβ. The class given is cell-based. Details: expressed in transfected cells.
A further test concerns TNF-RE tkLuc. The test can be described thus: Effect of antiestrogens on TNF-RE tkLuc (Example 2). The following applies: for effect on the repression induced by E2: TNF-RE tkLuc; for activation of TNF-RE tkLuc: antiestrogens. The class given is cell-based, human.
Test [3] addresses T1, ERβ. Briefly: ERE-tk-Luc luciferase activation in U2OS cells cotransfected with human ERβ. The class given is cell-based. Details: expressed in transfected cells; host or cells: U2OS (human osteosarcoma). To be noted: competition with the Astragalus extract.
For the next test, the system named is breast cancer. The following applies: cited from earlier work.

Here are results for four compounds from patent US9220740B2.

T1 sequence (Q92731 whole entry): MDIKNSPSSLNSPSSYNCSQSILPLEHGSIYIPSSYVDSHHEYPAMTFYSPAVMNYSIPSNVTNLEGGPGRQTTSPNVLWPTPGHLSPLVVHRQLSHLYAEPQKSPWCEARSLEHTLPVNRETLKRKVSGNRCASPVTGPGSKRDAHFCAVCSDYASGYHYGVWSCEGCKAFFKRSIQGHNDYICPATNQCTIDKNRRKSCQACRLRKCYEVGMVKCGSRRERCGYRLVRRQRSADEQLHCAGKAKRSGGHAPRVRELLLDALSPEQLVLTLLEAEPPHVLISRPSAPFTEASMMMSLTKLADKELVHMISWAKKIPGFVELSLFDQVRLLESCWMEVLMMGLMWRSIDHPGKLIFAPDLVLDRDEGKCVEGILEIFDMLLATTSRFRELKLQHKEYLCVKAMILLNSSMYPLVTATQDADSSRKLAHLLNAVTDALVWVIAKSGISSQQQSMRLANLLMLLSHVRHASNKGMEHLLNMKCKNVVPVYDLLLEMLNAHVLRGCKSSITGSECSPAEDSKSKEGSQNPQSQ

For the compound `C[C@]12CC[C@@H]3c4ccc(O)cc4CC[C@H]3[C@@H]1CC[C@@H]2O` [E2, estradiol], the “repression of TNF-α activation of TNF-RE tkLuc” value on ERβ [1] was 60-80%. Further, the “repression of TNF-α activation of TNF-RE” value on ERβ [2] is 100%.
In the case of `C[C@]12CC[C@@H]3c4ccc(O)cc4C[C@@H](CCCCCCCCC[S+]([O-])CCCC(F)(F)C(F)(F)F)[C@H]3[C@@H]1CC[C@@H]2O` (stereo partly drawn) [ICI 182, 780], in the test on TNF-RE tkLuc, the “effect on the repression induced by E2” value is recorded as “abolished” and the “activation of TNF-RE tkLuc” value stood at 2 fold.
Regarding `O=C(c1ccc(OCCN2CCCCC2)cc1)c1c(-c2ccc(O)cc2)sc2cc(O)ccc12` [raloxifene], in the test with TNF-RE tkLuc, the “effect on the repression induced by E2” value is “abolished” and the “activation of TNF-RE tkLuc” value is listed as 2 fold. Also, the “effect on the extract's stimulatory effect on the ERE with ERβ (FIG. 6)” value at ERβ [3] is “inhibited”.
Regarding `CC/C(=C(\c1ccccc1)c1ccc(OCCN(C)C)cc1)c1ccccc1` [tamoxifen], in the test on TNF-RE tkLuc, the “effect on the repression induced by E2” value is “abolished” and the “activation of TNF-RE tkLuc” value was 2 fold. Moreover, the “reduction of the risk of primary invasive breast cancer” value in the test with breast cancer (BCPT, women at high risk for breast cancer) is 49%. For the same compound, the “reduction of the risk of recurrences” value with breast cancer (five years of therapy, women with estrogen receptor-positive breast cancer) is listed as 42%. Moreover, the “reduction of mortality from breast cancer” value in the test on breast cancer (five years of therapy) is given as 22%.
